Measurements published in patent publication US9120820B2, “Fluorescent molecular probes for use in assays that measure test compound competitive binding with SAM-utilizing proteins” (CAYMAN CHEMICAL COMPANY, INCORPORATED, priority 2011, dated 2015).

Columns and labels:
[1] = molecular target: T1, PRMT4 (Homo sapiens, UniProt Q86X55); assay: Radiometric methyltransferase assay, PRMT4; type: biochemical; conditions: PRMT4 150 nM; compound 10 μM, 1 μM, or 0.1 μM; FIG. 13
T1 construct: made in house
T1 sequence (Q86X55 1-608): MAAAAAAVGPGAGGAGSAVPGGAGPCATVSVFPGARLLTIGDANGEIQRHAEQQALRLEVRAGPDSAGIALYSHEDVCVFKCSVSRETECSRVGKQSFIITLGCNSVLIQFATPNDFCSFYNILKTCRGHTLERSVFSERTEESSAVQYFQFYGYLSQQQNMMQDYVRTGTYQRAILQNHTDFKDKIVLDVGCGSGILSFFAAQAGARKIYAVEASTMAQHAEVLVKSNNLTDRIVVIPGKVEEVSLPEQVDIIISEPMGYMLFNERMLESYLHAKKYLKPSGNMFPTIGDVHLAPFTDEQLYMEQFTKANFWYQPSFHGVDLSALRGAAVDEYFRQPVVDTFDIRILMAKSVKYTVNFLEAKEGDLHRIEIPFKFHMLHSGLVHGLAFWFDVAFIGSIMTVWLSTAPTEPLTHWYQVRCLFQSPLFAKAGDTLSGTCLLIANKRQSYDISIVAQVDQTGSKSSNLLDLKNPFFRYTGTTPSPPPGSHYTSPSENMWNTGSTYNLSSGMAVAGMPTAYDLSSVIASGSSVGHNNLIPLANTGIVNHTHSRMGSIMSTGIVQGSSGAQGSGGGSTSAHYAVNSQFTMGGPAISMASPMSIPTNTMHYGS
Experimental: Reagents: Compound 16A was prepared by the method described in Example 4 and illustrated in FIG. 5. The Compounds 20A-iv and 20A-iii were prepared according to methods described in Example 6 and illustrated in FIG. 7. Enzymes were obtained from the Cayman Catalog with the exception of PRMT4 and PRMT6, which were produced in baculovirus and purified to near homogeneity using Ni-affinity chromatography. Human core histones were purified from HeLa nuclear pellet per the method of Coté et al. S-adenosylmethionine (SAM) was obtained from Sigma-Aldrich (Cat #A7007) and S-[methyl-3H]-SAM was obtained from Perkin-Elmer ([…]). Methods: […] To this was added enzyme diluted to provide a final assay concentration (GLP: 10 nM; PRMT1: 100 nM; SET7/9: 120 nM; PRDM9: 120 nM; PRMT4: 150 nM; PRMT6: 120 nM; G9a: 200 nM) and the compound was allowed to preincubate for 10 minutes at room temperature. […] Samples were mixed immediately after quenching and transferred to a 96-well GFC Uni-Filter microtiter filter plate (Perkin Elmer, Cat#6005174) that contained 50 μl of 20% TCA. Samples were allowed to precipitate for at least 5 minutes at room temperature. The samples were filtered onto the GFC membrane and washed four times with 100 μl of 10% TCA and once with 100 μl of 95% EtOH. To each well was added 25 μl of MicroScint-20 (Perkin-Elmer Cat#6013621) and samples were analyzed using a TopCount NXT microplate scintillation counter. The experiment was performed one time in duplicate for all compound concentrations tested and in triplicate for the vehicle and no enzyme controls. All data was analyzed in GraphPad Prism (v. 5.04).

[2] = molecular target: KMT5b (Homo sapiens, UniProt Q4FZB7); assay: Fluorescence polarization saturation binding of fluorescent probe to KMT5b; conditions: saturation-binding format, mean ± SEM, read-out: Sinefungin Probe 1A Affinity
Sequence of KMT5b (Q4FZB7 whole entry, species assumed): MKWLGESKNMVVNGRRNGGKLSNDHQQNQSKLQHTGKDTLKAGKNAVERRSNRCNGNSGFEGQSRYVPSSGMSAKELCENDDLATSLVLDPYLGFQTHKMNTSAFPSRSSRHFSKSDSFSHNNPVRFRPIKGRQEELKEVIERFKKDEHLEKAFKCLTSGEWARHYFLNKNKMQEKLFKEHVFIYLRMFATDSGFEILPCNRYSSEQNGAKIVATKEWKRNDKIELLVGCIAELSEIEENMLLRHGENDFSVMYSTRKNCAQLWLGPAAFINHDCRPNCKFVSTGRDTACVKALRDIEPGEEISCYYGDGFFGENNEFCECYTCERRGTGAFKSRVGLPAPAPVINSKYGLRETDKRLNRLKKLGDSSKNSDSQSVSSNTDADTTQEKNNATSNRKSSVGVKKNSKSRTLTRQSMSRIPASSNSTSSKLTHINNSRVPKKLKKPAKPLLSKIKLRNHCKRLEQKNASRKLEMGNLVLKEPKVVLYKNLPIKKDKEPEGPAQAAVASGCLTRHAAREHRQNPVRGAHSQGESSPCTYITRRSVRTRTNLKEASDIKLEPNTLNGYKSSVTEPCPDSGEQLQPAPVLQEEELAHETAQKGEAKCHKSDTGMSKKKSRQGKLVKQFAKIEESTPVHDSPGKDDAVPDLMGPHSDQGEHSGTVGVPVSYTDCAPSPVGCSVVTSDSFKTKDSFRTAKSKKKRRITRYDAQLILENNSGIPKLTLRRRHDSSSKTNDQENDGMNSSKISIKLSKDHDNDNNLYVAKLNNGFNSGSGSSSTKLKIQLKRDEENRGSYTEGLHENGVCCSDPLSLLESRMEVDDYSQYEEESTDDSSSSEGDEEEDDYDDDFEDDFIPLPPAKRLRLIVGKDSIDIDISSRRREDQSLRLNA
Experimental: (§1) Sinefungin Probe 1A was tested for the ability to bind to 16 proteins, including several non-methlytransferase protein controls (Table 2). This probe binds to 4 methyltransferases (SET7/9, G9a, GLP, MLL) with Kd values <2 μM.

[3] = molecular target: T2, SET8 (Homo sapiens, UniProt Q9NQR1); assay: Fluorescence polarization saturation binding of fluorescent probe to SET8
T2 construct: purchased Cayman 10319
T2 sequence (Q9NQR1 1-393): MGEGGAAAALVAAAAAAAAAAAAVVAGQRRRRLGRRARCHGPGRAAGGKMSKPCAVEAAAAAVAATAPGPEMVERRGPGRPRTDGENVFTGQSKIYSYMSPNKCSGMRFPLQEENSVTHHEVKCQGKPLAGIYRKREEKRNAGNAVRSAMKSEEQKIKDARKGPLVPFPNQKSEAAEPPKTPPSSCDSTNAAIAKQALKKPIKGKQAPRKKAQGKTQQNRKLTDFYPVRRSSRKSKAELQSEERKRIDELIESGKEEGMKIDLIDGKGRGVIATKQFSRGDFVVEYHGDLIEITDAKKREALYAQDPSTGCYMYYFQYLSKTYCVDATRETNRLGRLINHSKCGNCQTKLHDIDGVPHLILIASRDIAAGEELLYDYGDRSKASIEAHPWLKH
Experimental: Methods: The experiment was performed once, with two replicate wells for all methyltransferases per condition. The sole exception to this is NSD2 (see details below). The assay was performed in a ½ area, black, 96-well plate (Corning #3686) in a final volume of 30 μL. Methyltransferases (Table 1) were serially diluted two-fold in FP buffer (Cayman Catalog #600028) and 15 μL of a given dilution were added per well to the assay plate. Fifteen microliters of sinefungin probe 1A (10 nM) were added to each well, giving a final sinefungin probe 1A concentration of 5 nM. This concentration of sinefungin probe 1A was chosen because it had at least a 10-fold increase in fluorescence (excitation max 575 nm/emission max 615 nm) over background (buffer). The mixture was incubated in the dark at room temperature for 30 minutes and its fluorescence polarization was read using a BioTek Synergy 4.

[4] = molecular target: KMT5c (Homo sapiens, UniProt Q86Y97); assay: Fluorescence polarization saturation binding of fluorescent probe to KMT5c; conditions: saturation-binding format, read-out: Sinefungin Probe 1A Affinity
Sequence of KMT5c (Q86Y97 whole entry, species assumed): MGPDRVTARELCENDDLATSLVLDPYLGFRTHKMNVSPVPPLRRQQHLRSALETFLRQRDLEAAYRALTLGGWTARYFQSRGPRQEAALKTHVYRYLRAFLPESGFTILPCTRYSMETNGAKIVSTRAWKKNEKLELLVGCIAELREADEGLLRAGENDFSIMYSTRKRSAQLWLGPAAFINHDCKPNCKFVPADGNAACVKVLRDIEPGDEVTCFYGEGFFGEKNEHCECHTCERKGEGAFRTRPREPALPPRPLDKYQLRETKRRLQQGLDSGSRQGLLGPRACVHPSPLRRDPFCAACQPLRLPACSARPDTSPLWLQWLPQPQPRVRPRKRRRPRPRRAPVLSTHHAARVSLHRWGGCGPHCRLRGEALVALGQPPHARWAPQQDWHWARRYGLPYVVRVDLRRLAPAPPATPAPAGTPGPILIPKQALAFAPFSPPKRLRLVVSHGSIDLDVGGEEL
Experimental: as §1

[5] = molecular target: T1, PRMT4; assay: Fluorescence polarization saturation binding of fluorescent probe to PRMT4; conditions: saturation-binding format, read-out: Sinefungin Probe 1A Affinity
Experimental: as §1

[6] = molecular target: ASH2L (Homo sapiens, UniProt Q9UBL3); assay: Fluorescence polarization saturation binding of fluorescent probe to ASH2L; conditions: saturation-binding format, read-out: Sinefungin Probe 1A Affinity
Sequence of ASH2L (Q9UBL3 whole entry, species assumed): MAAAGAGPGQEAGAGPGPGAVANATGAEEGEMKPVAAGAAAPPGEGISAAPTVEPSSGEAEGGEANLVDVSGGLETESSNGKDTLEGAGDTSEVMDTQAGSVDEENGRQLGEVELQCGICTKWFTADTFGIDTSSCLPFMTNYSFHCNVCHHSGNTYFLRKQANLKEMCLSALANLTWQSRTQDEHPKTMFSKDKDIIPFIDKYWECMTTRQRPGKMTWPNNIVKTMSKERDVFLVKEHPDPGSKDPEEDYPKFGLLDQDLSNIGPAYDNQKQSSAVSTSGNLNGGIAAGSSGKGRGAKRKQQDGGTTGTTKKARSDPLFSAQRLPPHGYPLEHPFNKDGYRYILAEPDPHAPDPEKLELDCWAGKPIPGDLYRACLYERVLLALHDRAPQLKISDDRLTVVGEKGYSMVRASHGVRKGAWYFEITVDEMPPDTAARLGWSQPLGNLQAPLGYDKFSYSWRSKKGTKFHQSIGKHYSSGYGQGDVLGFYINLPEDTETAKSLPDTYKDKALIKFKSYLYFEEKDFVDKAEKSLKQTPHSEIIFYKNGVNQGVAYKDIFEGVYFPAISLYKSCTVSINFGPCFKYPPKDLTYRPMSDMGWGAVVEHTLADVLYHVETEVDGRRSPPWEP
Experimental: as §1

[7] = molecular target: Sumo; assay: Fluorescence polarization saturation binding of fluorescent probe to Sumo (control protein); conditions: saturation-binding format, read-out: Sinefungin Probe 1A Affinity
Experimental: as §1

CCNC(=O)[C@H]1O[C@@H](n2cnc3c(N)nc(Cl)nc32)[C@H](O)[C@@H]1O [Compound 20A-iii, 2-chloroadenosine-5′-N-ethylcarboxamide] was tested, and the “inhibition of enzymatic activity” value [1] was “did not show appreciable inhibition”.

In the case of Nc1ncnc2c1ncn2[C@@H]1O[C@H](C[C@@H](N)CC[C@H](N)C(=O)O)[C@@H](OCc2cnnn2CCCCCCNC(=O)OC2CCN(C(=O)c3ccccc3C3=c4cc5c6c(c4Oc4c3cc3c7c4CCCN7CCC3)CCC[N+]=6CCC5)CC2)[C@H]1O [Sinefungin Probe 1A], the Kd [2] is reported as 6.1 ± 0.8 µM, the “measurable affinity for the probe” value ([3]; Example 8, SET8, 5 nM probe, FIG. 2) is reported as “only SET7/9 and G9a displayed measurable affinity” and the Kd ([3]; SET8, saturation-binding format, read-out: Sinefungin Probe 1A Affinity) is reported as over 2 µM. For the same compound, the Kd [4] was over 2 µM, the Kd [5] was over 2 µM and the Kd [6] was over 10 µM. The Kd [7] was over 10 µM.

With CCNC[C@H]1O[C@@H](n2cnc3c(N)nc(Cl)nc32)[C@H](O)[C@@H]1O [Compound 20A-iv, 2-chloroadenosine-5′-N-ethylamine] the “inhibition of enzymatic activity” value [1] was “did not show appreciable inhibition”.

For CSC[C@H]1O[C@@H](n2cnc3c(N)nc(NCCNC(=O)OC(C)(C)C)nc32)[C@H](O)[C@@H]1O [Compound 16A, tert-butyl (2-((6-amino-9-((2R,3R,4S,5S)-3,4-dihydroxy-5-((methylthio)methyl)tetrahydrofuran-2-yl)-9H-purin-2-yl)amino)ethyl)carbamate], the “inhibition of enzymatic activity” value [1] was “inhibits”.
